Experimental data reported in paper PMC7265341, “Quantifying CDK inhibitor selectivity in live cells” (Nature Communications, 2020).
Where two headings read alike, the source gives them in different places.

Tests used:
[1] = target: CDK7 (Homo sapiens, UniProt P50613); assay: NanoBRET live-cell target engagement, NanoLuc-CDK7 in HEK-293; format: binding; details: CDK7
[2] = target: CDK18/Cyclin Y (Homo sapiens, UniProt Q07002); assay: NanoBRET live-cell target engagement, CDK18-NanoLuc/Cyclin Y in HEK-293; format: binding; details: CDK18/Y, 10µM
[3] = target: CDK20/Cyclin H (Homo sapiens, UniProt Q8IZL9); assay: NanoBRET live-cell target engagement, NanoLuc-CDK20/Cyclin H in HEK-293; format: binding; details: CDK20/H, 10µM
[4] = target: CDK2/Cyclin E1 (Homo sapiens, UniProt P24941); assay: NanoBRET live-cell target engagement, CDK2-NanoLuc/Cyclin E1 in HEK-293; format: binding; details: CDK2/E1
[5] = target: CDK11B/Cyclin L2 (Homo sapiens, UniProt P21127); assay: NanoBRET live-cell target engagement, CDK11B-NanoLuc/Cyclin L2 in HEK-293; format: binding; details: CDK11b/L2, 10µM
[6] = target: CDK4/Cyclin D1 (Homo sapiens, UniProt P11802); assay: NanoBRET live-cell target engagement, NanoLuc-CDK4/Cyclin D1 in HEK-293; format: binding; details: CDK4/D1, 10µM
[7] = target: CDK6/Cyclin D1 (Homo sapiens, UniProt Q00534); assay: NanoBRET live-cell target engagement, NanoLuc-CDK6/Cyclin D1 in HEK-293; format: binding; details: CDK6/D1
[8] = target: CDK19/Cyclin C (Homo sapiens, UniProt Q9BWU1); assay: NanoBRET live-cell target engagement, NanoLuc-CDK19/Cyclin C in HEK-293
[9] = target: CDK13/Cyclin K (Homo sapiens, UniProt Q14004); assay: NanoBRET live-cell target engagement, CDK13-NanoLuc/Cyclin K in HEK-293; format: binding; details: CDK13/K, 10µM
[10] = target: CDK17/Cyclin Y (Homo sapiens, UniProt Q00537); assay: NanoBRET live-cell target engagement, CDK17-NanoLuc/Cyclin Y in HEK-293; format: binding; details: CDK17/Y, 10µM
[11] = target: CDK5/CDK5R1 (Homo sapiens, UniProt Q00535); assay: NanoBRET live-cell target engagement, CDK5-NanoLuc/CDK5R1 in HEK-293; format: binding; details: CDK5/CDK5R1, 10µM
[12] = target: T1, CDK11A/Cyclin L2 (Homo sapiens, UniProt Q9UQ88); assay: NanoBRET live-cell target engagement, CDK11A-NanoLuc/Cyclin L2 in HEK-293; format: binding; details: CDK11a/L2, 10µM
T1 sequence (Q9UQ88 1-783): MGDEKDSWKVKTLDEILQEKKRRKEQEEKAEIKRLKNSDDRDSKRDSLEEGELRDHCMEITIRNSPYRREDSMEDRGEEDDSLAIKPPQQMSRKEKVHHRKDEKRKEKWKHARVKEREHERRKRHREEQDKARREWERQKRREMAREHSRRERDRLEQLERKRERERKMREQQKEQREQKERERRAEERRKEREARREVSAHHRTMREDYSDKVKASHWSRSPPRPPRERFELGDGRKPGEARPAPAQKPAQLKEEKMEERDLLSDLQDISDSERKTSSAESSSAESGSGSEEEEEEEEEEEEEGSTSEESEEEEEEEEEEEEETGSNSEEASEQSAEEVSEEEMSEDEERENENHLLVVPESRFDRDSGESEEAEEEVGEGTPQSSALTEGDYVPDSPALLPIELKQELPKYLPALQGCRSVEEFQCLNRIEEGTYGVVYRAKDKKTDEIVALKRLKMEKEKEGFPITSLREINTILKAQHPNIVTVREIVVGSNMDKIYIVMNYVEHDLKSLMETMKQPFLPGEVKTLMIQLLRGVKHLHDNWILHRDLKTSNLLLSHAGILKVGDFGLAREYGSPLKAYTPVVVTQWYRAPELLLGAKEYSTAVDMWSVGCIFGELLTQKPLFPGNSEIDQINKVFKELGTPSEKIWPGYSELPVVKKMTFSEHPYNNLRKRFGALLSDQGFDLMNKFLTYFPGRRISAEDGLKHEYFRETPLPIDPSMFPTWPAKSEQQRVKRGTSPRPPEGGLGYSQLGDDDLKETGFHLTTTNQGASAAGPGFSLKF

[13] = target: CDK3/Cyclin E1 (Homo sapiens, UniProt Q00526); assay: NanoBRET live-cell target engagement, CDK3-NanoLuc/Cyclin E1 in HEK-293; format: binding
[14] = target: CDK16/Cyclin Y (Homo sapiens, UniProt Q00536); assay: NanoBRET live-cell target engagement, CDK16-NanoLuc/Cyclin Y in HEK-293; format: binding; details: CDK16/Y
[15] = target: CDK8/Cyclin C (Homo sapiens, UniProt P49336); assay: NanoBRET live-cell target engagement, NanoLuc-CDK8/Cyclin C in HEK-293; format: binding
[16] = target: CDK15/Cyclin Y (Homo sapiens, UniProt Q96Q40); assay: NanoBRET live-cell target engagement, NanoLuc-CDK15/Cyclin Y in HEK-293; format: binding; details: CDK15/Y, 10µM
[17] = target: CDK1/Cyclin E1 (Homo sapiens, UniProt P06493); assay: NanoBRET live-cell target engagement, CDK1-NanoLuc/Cyclin E1 in HEK-293; format: binding; details: CDK1/E1
[18] = target: CDK12/Cyclin K (Homo sapiens, UniProt Q9NYV4); assay: NanoBRET live-cell target engagement, CDK12-NanoLuc/Cyclin K in HEK-293; format: binding; details: CDK12/K, 10µM
[19] = target: CDK9/Cyclin K (Homo sapiens, UniProt P50750); assay: NanoBRET live-cell target engagement, NanoLuc-CDK9/Cyclin K in HEK-293; format: binding; details: CDK9/K, 10µM
[20] = average of replicates, read-out: Inhibition at 10µM (%) Average
[21] = read-out: Inhibition at 10µM (%) Replicate 1
[22] = read-out: Inhibition at 10µM (%) Replicate 2
[23] = n=3 average ± SEM, n=2 average to 2 significant figures, read-out: IC50 (nM) Average*
[24] = read-out: IC50 (nM) Replicate 1
[25] = read-out: IC50 (nM) Replicate 2
[26] = read-out: IC50 (nM) Replicate 3

CDK15/Cyclin Y, sequence (Q96Q40 whole entry): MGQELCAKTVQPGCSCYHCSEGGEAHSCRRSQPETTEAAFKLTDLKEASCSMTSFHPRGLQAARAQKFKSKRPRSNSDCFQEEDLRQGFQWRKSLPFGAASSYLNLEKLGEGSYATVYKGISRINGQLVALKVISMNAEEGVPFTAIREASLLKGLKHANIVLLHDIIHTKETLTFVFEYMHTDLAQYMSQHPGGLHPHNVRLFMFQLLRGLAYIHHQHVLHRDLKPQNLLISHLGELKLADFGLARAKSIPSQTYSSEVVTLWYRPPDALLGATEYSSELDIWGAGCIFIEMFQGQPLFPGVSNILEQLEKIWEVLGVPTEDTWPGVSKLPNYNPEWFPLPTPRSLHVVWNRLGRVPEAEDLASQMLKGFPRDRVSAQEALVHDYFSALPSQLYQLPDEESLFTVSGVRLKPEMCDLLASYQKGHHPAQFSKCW
CDK15/Cyclin Y, sequence (Q8ND76 whole entry partner): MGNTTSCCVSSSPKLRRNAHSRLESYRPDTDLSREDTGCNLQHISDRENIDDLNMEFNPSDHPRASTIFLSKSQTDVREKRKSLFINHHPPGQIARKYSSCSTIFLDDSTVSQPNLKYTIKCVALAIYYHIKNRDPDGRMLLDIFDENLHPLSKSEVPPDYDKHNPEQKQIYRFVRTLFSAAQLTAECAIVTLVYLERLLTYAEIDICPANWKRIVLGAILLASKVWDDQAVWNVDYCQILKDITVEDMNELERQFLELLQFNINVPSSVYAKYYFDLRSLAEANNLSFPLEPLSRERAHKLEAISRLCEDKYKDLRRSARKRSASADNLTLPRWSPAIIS
CDK4/Cyclin D1, sequence (P11802 whole entry): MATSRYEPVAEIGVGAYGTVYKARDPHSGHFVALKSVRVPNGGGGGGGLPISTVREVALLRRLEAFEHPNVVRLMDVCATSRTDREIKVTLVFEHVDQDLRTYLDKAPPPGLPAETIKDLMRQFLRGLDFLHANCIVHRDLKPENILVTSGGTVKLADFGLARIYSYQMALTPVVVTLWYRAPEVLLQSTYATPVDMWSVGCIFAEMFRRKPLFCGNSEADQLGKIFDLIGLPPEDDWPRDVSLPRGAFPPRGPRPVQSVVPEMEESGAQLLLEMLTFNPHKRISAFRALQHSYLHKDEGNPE
CDK4/Cyclin D1, sequence (P24385 whole entry partner): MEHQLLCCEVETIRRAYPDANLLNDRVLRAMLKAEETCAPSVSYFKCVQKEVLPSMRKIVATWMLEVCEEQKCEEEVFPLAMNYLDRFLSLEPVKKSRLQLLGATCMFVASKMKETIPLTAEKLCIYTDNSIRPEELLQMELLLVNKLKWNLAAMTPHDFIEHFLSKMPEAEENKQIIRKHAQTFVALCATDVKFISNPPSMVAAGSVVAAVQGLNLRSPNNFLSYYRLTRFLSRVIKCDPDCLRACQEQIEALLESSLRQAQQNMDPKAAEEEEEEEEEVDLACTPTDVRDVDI
CDK16/Cyclin Y, sequence (Q00536 whole entry): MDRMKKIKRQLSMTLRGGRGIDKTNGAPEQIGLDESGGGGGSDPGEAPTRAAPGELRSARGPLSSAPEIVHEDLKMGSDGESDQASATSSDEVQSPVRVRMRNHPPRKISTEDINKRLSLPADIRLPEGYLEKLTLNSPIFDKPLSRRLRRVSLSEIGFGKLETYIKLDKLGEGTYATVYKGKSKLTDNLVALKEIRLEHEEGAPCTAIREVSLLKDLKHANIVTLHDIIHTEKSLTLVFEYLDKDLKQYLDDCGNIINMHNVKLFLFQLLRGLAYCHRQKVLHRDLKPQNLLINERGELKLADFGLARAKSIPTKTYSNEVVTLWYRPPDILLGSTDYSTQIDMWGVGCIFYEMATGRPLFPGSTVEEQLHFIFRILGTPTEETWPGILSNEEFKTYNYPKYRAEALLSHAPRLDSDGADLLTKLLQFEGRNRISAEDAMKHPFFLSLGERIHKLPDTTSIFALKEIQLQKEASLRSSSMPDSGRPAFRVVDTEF
CDK16/Cyclin Y, sequence (Q8ND76 whole entry partner): as the sequence (Q8ND76 whole entry partner) above
CDK11B/Cyclin L2, sequence (P21127 1-782 isoform P21127-2): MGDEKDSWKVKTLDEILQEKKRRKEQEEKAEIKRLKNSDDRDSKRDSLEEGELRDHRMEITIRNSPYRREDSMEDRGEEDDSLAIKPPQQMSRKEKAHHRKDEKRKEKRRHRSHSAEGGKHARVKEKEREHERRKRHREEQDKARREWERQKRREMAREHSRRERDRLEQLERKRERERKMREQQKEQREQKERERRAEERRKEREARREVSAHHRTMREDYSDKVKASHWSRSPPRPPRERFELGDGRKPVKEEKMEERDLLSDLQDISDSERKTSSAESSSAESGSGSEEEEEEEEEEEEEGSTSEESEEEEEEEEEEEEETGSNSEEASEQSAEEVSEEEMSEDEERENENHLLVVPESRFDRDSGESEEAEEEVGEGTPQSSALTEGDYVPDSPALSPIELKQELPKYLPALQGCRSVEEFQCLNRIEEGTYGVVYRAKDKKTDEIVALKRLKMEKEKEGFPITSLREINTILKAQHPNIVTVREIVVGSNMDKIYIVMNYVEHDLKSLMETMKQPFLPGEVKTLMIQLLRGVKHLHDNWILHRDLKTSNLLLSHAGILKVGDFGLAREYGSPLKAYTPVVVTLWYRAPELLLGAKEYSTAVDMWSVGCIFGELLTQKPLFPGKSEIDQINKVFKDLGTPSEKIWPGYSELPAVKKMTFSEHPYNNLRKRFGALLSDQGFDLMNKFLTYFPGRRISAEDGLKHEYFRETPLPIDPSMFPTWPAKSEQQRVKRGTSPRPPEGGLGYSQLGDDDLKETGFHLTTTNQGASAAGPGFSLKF
CDK8/Cyclin C, sequence (P49336 whole entry): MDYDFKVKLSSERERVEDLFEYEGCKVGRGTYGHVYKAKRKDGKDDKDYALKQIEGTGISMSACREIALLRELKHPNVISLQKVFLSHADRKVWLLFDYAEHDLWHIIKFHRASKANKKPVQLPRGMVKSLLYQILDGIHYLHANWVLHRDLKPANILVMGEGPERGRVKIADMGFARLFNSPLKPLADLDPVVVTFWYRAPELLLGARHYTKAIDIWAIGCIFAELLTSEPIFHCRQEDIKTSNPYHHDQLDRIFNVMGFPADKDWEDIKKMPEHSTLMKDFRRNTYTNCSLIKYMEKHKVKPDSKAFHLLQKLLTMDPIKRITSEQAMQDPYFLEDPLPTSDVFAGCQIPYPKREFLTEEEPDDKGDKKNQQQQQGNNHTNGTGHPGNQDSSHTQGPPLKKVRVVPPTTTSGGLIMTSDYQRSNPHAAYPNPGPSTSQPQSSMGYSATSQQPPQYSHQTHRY
CDK8/Cyclin C, sequence (P24863 whole entry partner): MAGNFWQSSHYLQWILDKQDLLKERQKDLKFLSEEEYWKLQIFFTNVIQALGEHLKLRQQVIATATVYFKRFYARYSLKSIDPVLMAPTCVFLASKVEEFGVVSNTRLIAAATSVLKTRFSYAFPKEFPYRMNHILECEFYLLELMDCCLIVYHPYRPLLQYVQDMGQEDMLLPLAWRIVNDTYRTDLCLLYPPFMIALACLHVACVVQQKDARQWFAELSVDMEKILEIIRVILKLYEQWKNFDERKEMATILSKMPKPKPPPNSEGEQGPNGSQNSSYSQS
CDK5/CDK5R1, sequence (Q00535 whole entry): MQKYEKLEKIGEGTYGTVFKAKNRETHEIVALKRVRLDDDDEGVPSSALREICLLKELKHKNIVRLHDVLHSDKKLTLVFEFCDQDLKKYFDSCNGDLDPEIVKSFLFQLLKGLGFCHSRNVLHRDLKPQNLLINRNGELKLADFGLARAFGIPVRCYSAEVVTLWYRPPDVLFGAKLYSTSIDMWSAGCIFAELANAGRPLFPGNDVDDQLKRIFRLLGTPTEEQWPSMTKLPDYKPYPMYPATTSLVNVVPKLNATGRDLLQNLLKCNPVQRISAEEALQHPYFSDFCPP
CDK5/CDK5R1, sequence (Q15078 whole entry partner): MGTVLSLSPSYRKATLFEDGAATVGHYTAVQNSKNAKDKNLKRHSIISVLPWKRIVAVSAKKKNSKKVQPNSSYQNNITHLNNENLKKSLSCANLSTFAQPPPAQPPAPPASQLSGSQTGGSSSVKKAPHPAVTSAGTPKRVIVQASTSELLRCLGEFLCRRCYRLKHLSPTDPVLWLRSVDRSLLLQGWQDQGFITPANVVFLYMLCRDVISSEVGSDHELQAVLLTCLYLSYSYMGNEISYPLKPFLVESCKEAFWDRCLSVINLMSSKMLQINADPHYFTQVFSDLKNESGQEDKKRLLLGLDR
CDK3/Cyclin E1, sequence (Q00526 whole entry): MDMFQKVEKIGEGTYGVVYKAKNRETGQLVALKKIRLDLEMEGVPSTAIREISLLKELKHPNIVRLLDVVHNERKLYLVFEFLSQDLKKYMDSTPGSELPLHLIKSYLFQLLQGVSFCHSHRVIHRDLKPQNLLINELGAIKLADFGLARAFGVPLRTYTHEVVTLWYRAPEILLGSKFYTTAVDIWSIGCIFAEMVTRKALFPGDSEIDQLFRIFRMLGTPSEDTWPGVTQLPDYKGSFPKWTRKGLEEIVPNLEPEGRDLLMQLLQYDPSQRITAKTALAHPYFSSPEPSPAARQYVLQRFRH
CDK3/Cyclin E1, sequence (P24864 whole entry partner): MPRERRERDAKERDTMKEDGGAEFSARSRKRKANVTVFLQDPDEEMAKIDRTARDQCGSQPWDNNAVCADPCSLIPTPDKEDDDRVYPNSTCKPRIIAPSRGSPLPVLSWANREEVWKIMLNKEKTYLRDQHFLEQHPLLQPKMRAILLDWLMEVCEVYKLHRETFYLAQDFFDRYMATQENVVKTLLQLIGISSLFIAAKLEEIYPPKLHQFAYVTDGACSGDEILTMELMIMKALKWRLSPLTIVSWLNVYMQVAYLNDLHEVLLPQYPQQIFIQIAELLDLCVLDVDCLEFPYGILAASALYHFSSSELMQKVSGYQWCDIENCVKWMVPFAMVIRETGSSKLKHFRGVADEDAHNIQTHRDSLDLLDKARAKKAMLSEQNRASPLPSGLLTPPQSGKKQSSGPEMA

`CCCCOc1c(C(=O)c2c(F)cc(C)cc2F)c[nH]c2nncc1-2` [BMS-265246] was tested, and the inhibition at 10 µM [1, 20] was 43.7%, the inhibition at 10 µM [1, 21] was 21% and the inhibition at 10 µM [1, 22] was 66.3%. It also gave an IC50 [1, 23] of 180 ± 10 nM, an IC50 [1, 24] of 160 nM and an IC50 [1, 25] of 170 nM. For the same molecule, the IC50 [1, 26] was 197 nM, the inhibition at 10 µM [2, 20] was 89.2% and the inhibition at 10 µM [2, 21] was 86.5%. For the same molecule, the inhibition at 10 µM [2, 22] was 92%, the inhibition at 10 µM [3, 21] was 14.5% and the inhibition at 10 µM [3, 22] was -14.1%. The inhibition at 10 µM [4, 20] was 80.1%, the inhibition at 10 µM [4, 21] was 77.4% and the inhibition at 10 µM [4, 22] was 82.8%. The IC50 [4, 23] was 22 ± 8 nM, the IC50 [4, 24] was 29 nM and the IC50 [4, 25] was 31 nM. It also gave an IC50 [4, 26] of 6.6 nM, an inhibition at 10 µM [5, 20] of 11.8% and an inhibition at 10 µM [5, 21] of 9.8%. For the same molecule, the inhibition at 10 µM [5, 22] was 13.8%, the inhibition at 10 µM [6, 20] was 49.1% and the inhibition at 10 µM [6, 21] was 49%. The inhibition at 10 µM [6, 22] was 49.3%, the inhibition at 10 µM [7, 20] was 68% and the inhibition at 10 µM [7, 21] was 64.1%. The inhibition at 10 µM [7, 22] was 71.8%, the IC50 [7, 23] was 100 ± 30 nM and the IC50 [7, 24] was 63 nM. It also gave an IC50 [7, 25] of 70 nM, an IC50 [7, 26] of 152 nM and a Kd [8] of under 2 nM. It also gave an IC50 ([8]; IC50 (nM) Average*, CDK19/Y, n=3 average ± SEM, n=2 average to 2 significant figures) of 1.47 ± 0.09 nM, an IC50 ([8]; IC50 (nM) Replicate 2, CDK19/C) of 1.6 nM and an IC50 ([8]; IC50 (nM) Replicate 3, CDK19/C) of 1.3 nM. For the same molecule, the IC50 ([8]; IC50 for CDK/cyclin complexes, CDK19/C, live HEK-293, 2 h, mean ± S.E.M. (n=3) or mean (n=2)) was 1.5 nM, the inhibition at 10 µM ([8]; read-out: Inhibition at 10µM (%) Average, CDK19/C, average of replicates) was 95.1% and the inhibition at 10 µM ([8]; read-out: Inhibition at 10µM (%) Replicate 1, CDK19/C) was 98.1%. It also gave an inhibition at 10 µM ([8]; read-out: Inhibition at 10µM (%) Replicate 2, CDK19/C) of 92.2%, an inhibition at 10 µM [9, 20] of 12.6% and an inhibition at 10 µM [9, 21] of 10.5%. The inhibition at 10 µM [9, 22] was 14.7%, the inhibition at 10 µM [10, 20] was 75.2% and the inhibition at 10 µM [10, 21] was 71.1%. It also gave an inhibition at 10 µM [10, 22] of 79.2%, an inhibition at 10 µM [11, 20] of 35.1% and an inhibition at 10 µM [11, 21] of 36.3%. It also gave an inhibition at 10 µM [11, 22] of 33.9%, an inhibition at 10 µM [12, 20] of 8.4% and an inhibition at 10 µM [12, 21] of 3.6%. The inhibition at 10 µM [12, 22] was 13.2%, the inhibition at 10 µM ([13]; CDK3/E1, average of replicates, read-out: Inhibition at 10µM (%) Average) was 74% and the inhibition at 10 µM ([13]; CDK3/E1, read-out: Inhibition at 10µM (%) Replicate 1) was 81.9%. It also gave an inhibition at 10 µM ([13]; CDK3/E1, read-out: Inhibition at 10µM (%) Replicate 2) of 66%, an IC50 ([13]; CDK3/E1, read-out: IC50 (nM) Replicate 1) of 6.5 nM and an IC50 ([13]; CDK3/E1, read-out: IC50 (nM) Replicate 2) of 14 nM. For the same molecule, the IC50 ([13]; CDK3/E1, read-out: IC50 (nM) Replicate 3) was 9.2 nM, the IC50 ([13]; live HEK-293, 2 h, mean ± S.E.M. (n=3) or mean (n=2), read-out: IC50 for CDK/cyclin complexes, CDK3/E1) was 10 nM and the inhibition at 10 µM [14, 21] was 70.8%. The inhibition at 10 µM [14, 22] was 76.5%, the IC50 [14, 23] was 50 ± 20 nM and the IC50 [14, 24] was 5.7 nM. It also gave an IC50 [14, 25] of 63 nM, an IC50 [14, 26] of 79 nM and an inhibition at 10 µM ([15]; CDK8/C, average of replicates, read-out: Inhibition at 10µM (%) Average) of 95.1%. The inhibition at 10 µM ([15]; CDK8/C, read-out: Inhibition at 10µM (%) Replicate 1) was 97.6%, the inhibition at 10 µM ([15]; CDK8/C, read-out: Inhibition at 10µM (%) Replicate 2) was 92.5% and the IC50 ([15]; CDK8/C, read-out: IC50 (nM) Replicate 1) was 1.2 nM. For the same molecule, the IC50 ([15]; CDK8/C, read-out: IC50 (nM) Replicate 2) was 0.45 nM, the IC50 ([15]; CDK8/C, read-out: IC50 (nM) Replicate 3) was 0.5 nM and the IC50 ([15]; live HEK-293, 2 h, mean ± S.E.M. (n=3) or mean (n=2), read-out: IC50 for CDK/cyclin complexes, CDK8/C) was 0.7 nM. For the same molecule, the Kd ([15]; live HEK-293, read-out: Kd-apparent, CDK8 live-cell occupancy) was under 2 nM, the inhibition at 10 µM [16, 20] was 35.1% and the inhibition at 10 µM [16, 21] was 51.3%. It also gave an inhibition at 10 µM [16, 22] of 19%, an inhibition at 10 µM [17, 20] of 44.4% and an inhibition at 10 µM [17, 21] of 65.6%. The inhibition at 10 µM [17, 22] was 23.1%, the IC50 [17, 23] was 50 ± 20 nM and the IC50 [17, 24] was 95 nM. For the same molecule, the IC50 [17, 25] was 39 nM, the IC50 [17, 26] was 11 nM and the inhibition at 10 µM [18, 20] was 5.2%. It also gave an inhibition at 10 µM [18, 21] of 12.3%, an inhibition at 10 µM [18, 22] of -1.9% and an inhibition at 10 µM [19, 20] of 26.1%. The inhibition at 10 µM [19, 21] was 31% and the inhibition at 10 µM [19, 22] was 21.3%.
